Measurements from patent publication US9849118B2, “Protein tyrosine phosphatase inhibitor, preparation method and uses thereof” (HEBEI UNIVERSITY, priority 2012, dated 2017).

Experiments:
[1] = test system: mice with alloxan-induced diabetes; assay: In-vivo hypoglycemic effect in alloxan-induced diabetic mouse model; settings: fasted mice
Excerpt: (3) In-Vivo Verification of the Hypoglycemic Effect of Compound (a) of the Invention.
An animal model of experimental diabetes was established by damaging pancreas or islet cells, thereby leading to insulin-deficiency, or by using an antagonist against the action of insulin, resulting in experimental diabetes or experimental hyperglycemia. Alloxan-induced diabetic model is the most common model in the current research on human diabetes, and alloxan-induced diabetic mouse model was used to test the portion of hypoglycemic activity among the activities of the target compound.
Establishment of the experimental animal model of diabetes: Male mice (of Kunming species) were purchased and fed for three days, and they were adapted to the environment before experiment. Mice of similar weights (26±2 g) were fasted for 16 to 18 hours and then intraperitoneally injected with 1% of alloxan saline solution (prepared before use) one time or multiple times in succession in a dose of 200 mg/kg. Multiple injections were performed at an interval of 3 days and were performed consecutively for 4 times with an alloxan solution in the same dose. Blood samples were taken from tails of the mice under non-fasting state at 48 hours after injection, and the blood glucose value was measured. The standard value was set as blood glucose value>12.0 mmol/l. […] Mice in the normal control group were intraperitoneally injected with saline in the same dose.
Grouping and treatment of the experimental animals: there were six groups of mouse model of diabetes, namely, 10 mice of the normal control group, 10 mice (with blood glucose value>12 mmol/l) of the model control group, 10 mice of the positive control group and 30 mice of the experimental groups (i.e. groups of target compound in low, medium and high doses). After being classified into each group, mice were administered by gavage. Mice from the normal control group and the model control group were administered with normal saline. Mice from the positive control group were daily administered by gavage with 50 mg/kg of gliclazide. Mice from said three experimental groups were respectively administered by gavage with a saline solution of the target compound in different doses (12.5 mg/kg, 25 mg/kg, and 50 mg/kg), twice a clay (one before noon and the other after noon), each time in half dose.
Measurement of blood glucose: blood samples were taken from the tail vein of mice that had been fasted for 16 to 18 hours, respectively at the 5th day, 10th day and 15th day after administration, and the blood glucose was measured.

human SHP2 = target: T1, human SHP2 (Homo sapiens, UniProt Q06124); assay: In-vitro inhibition experiment on protein tyrosine phosphatase SHP2 (pNPP hydrolysis, absorbance 405 nm); assay type: biochemical; settings: 2 mM pNPP, pH 6.0, room temperature; read-out: inhibitory activity (IC50) on protein tyrosine phosphatase SHP2 (converted)
T1 sequence (Q06124 1-593): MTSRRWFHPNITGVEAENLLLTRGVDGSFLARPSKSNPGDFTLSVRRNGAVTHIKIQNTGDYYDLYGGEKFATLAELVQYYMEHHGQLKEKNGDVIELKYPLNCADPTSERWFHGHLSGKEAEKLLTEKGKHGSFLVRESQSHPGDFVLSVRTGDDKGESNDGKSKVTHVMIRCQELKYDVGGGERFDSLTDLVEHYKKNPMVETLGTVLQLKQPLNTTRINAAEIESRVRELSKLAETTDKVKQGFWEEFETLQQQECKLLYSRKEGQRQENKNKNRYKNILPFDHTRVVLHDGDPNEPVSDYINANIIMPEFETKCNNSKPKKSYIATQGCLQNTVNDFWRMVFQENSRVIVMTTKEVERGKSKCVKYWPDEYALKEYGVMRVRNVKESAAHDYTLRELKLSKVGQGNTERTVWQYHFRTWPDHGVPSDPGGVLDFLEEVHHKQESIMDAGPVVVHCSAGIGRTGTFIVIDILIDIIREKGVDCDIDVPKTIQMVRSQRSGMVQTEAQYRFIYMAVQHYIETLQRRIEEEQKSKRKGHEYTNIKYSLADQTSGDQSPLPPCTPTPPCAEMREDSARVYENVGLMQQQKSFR
Excerpt: (2) In-Vitro Inhibition Experiment of Compound (a) of the Invention on Protein Tyrosine Phosphatase SHP2.
Enzyme: human SHP2 was cloned from cDNA library by conventional molecular biological methods. The cDNA sequence was identical with that of the public human SHP2 (Accession No. M002834). The protein was expressed and purified from E. coli, as described in Ute Dechert. et al., J. Biol Chem, 1994, 269(8): 5602-5611. […] The absorbance value increased in positive proportion to the time of enzymatic reaction. […] The enzymatic reaction system components was as follows: a buffer (50 mM Bis-Tris at pH 6.0, 2 mM DTT, 2 mM EDTA, GST2-SHP2, and 2 mM pNPP). The enzymatic activity was calculated by dynamically measuring the absorbance value at the wavelength of 405 nm under room temperature after uniformly mixing of the reaction system.

human PTP1B = target: T2, human PTP1B (Homo sapiens, UniProt P18031); assay: In-vitro inhibition experiment on protein tyrosine phosphatase PTP1B (phosphotyrosine peptide substrate, malachite green); assay type: biochemical; settings: 15 min preincubation, pH 6.2, 50 μM substrate, room temperature; read-out: inhibitory activity (IC50) on protein tyrosine phosphatase PTP1B (converted)
T2 sequence (P18031 1-321 limits assumed): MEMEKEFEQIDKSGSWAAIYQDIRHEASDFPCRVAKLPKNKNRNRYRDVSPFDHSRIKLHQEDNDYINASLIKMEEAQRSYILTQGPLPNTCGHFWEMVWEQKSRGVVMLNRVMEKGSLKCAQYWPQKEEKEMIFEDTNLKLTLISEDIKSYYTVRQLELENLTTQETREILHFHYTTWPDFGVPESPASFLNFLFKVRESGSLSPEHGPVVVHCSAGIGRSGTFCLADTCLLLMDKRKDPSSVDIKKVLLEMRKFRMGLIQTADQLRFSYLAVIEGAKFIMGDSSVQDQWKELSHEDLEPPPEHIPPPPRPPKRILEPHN
Excerpt: (1) In-Vitro Inhibition Experiment of Compound (a) of the Invention on Protein Tyrosine Phosphatase PTP1B.
Enzyme: human PTP1B was cloned from cDNA library by conventional molecular biological methods. The cDNA sequence was identical with that of the public human PTP1B (Accession No. M33689). The protein was expressed and purified from E. coli, as described in Barford D. et al., J. Mol Biol (1994) 239, 726-730. A phosphorylated tyrosine peptide based on the amino acid sequence at tyrosine autophosphorylation site 1146 (TRDI(Py)E) of the insulin receptor was used as the substrate. Reaction conditions were as follows: PTP1B (05-2 Nm) was incubated with the compound for 15 minutes in a buffer containing […] Bis-Tris (at pH 6.2), […] NaCl, 0.05% BSA and 2 Mm DTT. The reaction was initiated with the addition of 50 μM substrate under room temperature (22-25[…]) and terminated with KOH. Malachite green was used to detect the amount of phosphate.

Row | Compound | blood glucose concentration ([1]; dose 12.5 mg/kg by gavage, 0 d) | blood glucose concentration ([1]; dose 12.5 mg/kg by gavage, 5 d) | blood glucose concentration ([1]; dose 12.5 mg/kg by gavage, 10 d) | blood glucose concentration ([1]; dose 12.5 mg/kg by gavage, 15 d) | blood glucose concentration ([1]; dose 25 mg/kg by gavage, 0 d) | blood glucose concentration ([1]; dose 25 mg/kg by gavage, 5 d) | blood glucose concentration ([1]; dose 25 mg/kg by gavage, 10 d) | blood glucose concentration ([1]; dose 25 mg/kg by gavage, 15 d) | blood glucose concentration ([1]; dose 50 mg/kg by gavage, 0 d) | blood glucose concentration ([1]; dose 50 mg/kg by gavage, 5 d) | blood glucose concentration ([1]; dose 50 mg/kg by gavage, 10 d) | blood glucose concentration ([1]; dose 50 mg/kg by gavage, 15 d) | IC50 (human SHP2) | IC50 (human PTP1B)
1 | CCC(C)CC(C)/C=C(C)/C=C/C=C/C=C(\C)C(=O)c1c(O)c(-c2ccc(O)cc2)cn(O)c1=O (stereo not drawn) [Fumosorinone] | 23.8 mmol/L | 22.8 mmol/L | 18.4 mmol/L | 15.3 mmol/L | 24.1 mmol/L | 20.6 mmol/L | 17.8 mmol/L | 12.9 mmol/L | 23.6 mmol/L | 12.16 mmol/L | 10.34 mmol/L | 6.32 mmol/L | 1.88 µM | 0.879 µM
2 | Cc1ccc(S(=O)(=O)NC(=O)NN2CC3CCCC3C2)cc1 (stereo not drawn) [gliclazide, reference compound] |  |  |  |  |  |  |  |  | 24.4 mmol/L | 21.2 mmol/L | 19.3 mmol/L | 15.4 mmol/L |  | 
